We go through three compounds from article PMC10223356, “Tetrasubstituted Pyrrole Derivative Mimetics of Protein–Protein Interaction Hot-Spot Residues: A Promising Class of Anticancer Agents Targeting Melanoma Cells” (Molecules, 2023).

Each structure is given as a SMILES string. ≈ marks a conversion by molar mass, not a printed value.

In data set [1] the test system is normal rat L6 myoblast. As to the kind of experiment: Cell survival index (MTT + cell count) bioscreen, L6. Type of data set: cell-based. Conditions: healthy rat myoblast cell line, 48 h of incubation, mean ± SEM (n = 30), read-out: L6 IC50. On the procedure: (§1) Cell growth inhibition activity of compounds 1, 9a–i, 10a,b, and the positive control nutlin-3a was evaluated following 48 h of incubation with increasing concentrations of the compounds (from 1.5 to 25 µM) in human cancer (A375 and HCT-116) and healthy (L6) cell lines. […] The evaluation of the “cell survival index” show a typical concentration-dependent sigmoid trend, achieving IC50 values in the low micromolar range (Figure S2).
(§2) Human epithelial melanoma A375 cells, human colorectal carcinoma HCT-116 cells, and normal rat L6 myoblast were grown in DMEM (Invitrogen, Paisley, UK) supplemented with 10% fetal bovine serum (FBS, Cambrex, Verviers, Belgium), L-glutamine (2 mM, Sigma, Milan, Italy), penicillin (100 units/mL, Sigma), and streptomycin (100 μg/mL, Sigma) and cultured in a humidified 5% carbon dioxide atmosphere at 37 °C, according to ATCC recommendations. A375 and HCT-116 were used as preclinical human cancer models in vitro, while rat L6 were used as control healthy cells.
(§3) The antiproliferative activity of 1, 9a–i, and 10a,b was investigated through the estimation of a “cell survival index”, arising from the combination of cell viability evaluation with cell counting, as previously reported. The cell survival index is calculated as the arithmetic mean between the percentage values derived from the MTT assay and the automated cell count. Cells were inoculated in 96-microwell culture plates at a density of 10^4 cells/well and allowed to grow for 24 h. The medium was then replaced with fresh medium and cells were treated for an additional 48 h with a range of concentrations (from 1.5 to 25 μM) of 1, 9a–i, and 10a,b. Using the same experimental procedure, cell cultures were also incubated with DMSO as negative controls (vehicle), as well as with cisplatin (cDDP) and nutlin-3a as positive controls for cytotoxic and antiproliferative effects, respectively. Cell viability was evaluated using the MTT assay procedure. Cell number was determined by TC20 automated cell counter (Bio-Rad, Milan, Italy), providing an accurate and reproducible total count of cells and a live/dead ratio in one step by a specific dye (trypan blue) exclusion assay. The calculation of the concentration required to inhibit the net increase in the cell number and viability by 50% (IC50) is based on plots of data (n = 6 for each experiment) and repeated five times (total n = 30). IC50 values were calculated from a dose–response curve by nonlinear regression using a curve-fitting program, GraphPad Prism 5.0, and are expressed as mean values ± SEM (n = 30) of five independent experiments.

Data set [2] in a line: Solubility assay in PBS by UV light scattering (precipitation point). Conditions: for solubility at 1 min: PBS (phosphate-buffered saline), aqueous buffer, kinetic from dmso stock, PBS solution pH = 7.4, 37 °C, mean ± SEM (n = 3). The class given is physicochemical. On the procedure: The solubility of all compounds was evaluated in a PBS solution (phosphate-buffered saline; Sigma-Aldrich, Merck KGaA, Darmstadt, Germany, pH = 7.4) by means of UV spectroscopy.
For each compound, the precipitation point was quantified measuring the increasing of the UV absorption of PBS in the range of 600–800 nm after successive additions of aliquots of a DMSO solution at specific concentration. Because of the absence of bands in the selected UV region, the increase in absorption is due to light scattering caused by the formation of particulate in the PBS. UV absorption data were graphically reported vs. μL of the added DMSO solution (x-axis), and the precipitation point was identified as the intersect point of the bilinear fitted curve. The x coordinate of the intersect point corresponded to the microlitres of DMSO added to PBS (1.4 mL) when the precipitation occurred, from which the concentration of the molecule in PBS at the precipitation point is readily calculated.
The solubility of each molecule in PBS was quantified measuring the UV scattering in the range of 600–800 nm (JASCO UV-530 spectrophotometer, equipped with ETC-505 T temperature controller). DMSO solutions of 1, 9a, 9b, 9c, 9d, 9e, 9f, ±10b, and nutlin-3a were used at a final concentration of 2.6 mM, whereas those of 9g, 9h, and 9i were used at 1.0 mM. A total of 1400 µL of degassed PBS was placed in a quartz cuvette (o.l. 0.5 cm), equilibrated 5 min at 37 °C, and then titrated by 7–10 successive additions of 0.5 µL or 0.3 µL from the DMSO solution. Each titration was performed without removing the cuvette from the UV cell and, after each addition, the solution was equilibrated 1 min a 37 °C under gently stirring before the acquisition of the UV data. For each molecule, the solubility was expressed as the mean ± SEM (n = 3).

Data set [3] deals with human colorectal carcinoma HCT-116 cells. Kind of data set: Cell survival index (MTT + cell count) bioscreen, HCT-116. Type of data set: cell-based. Conditions: HCT-116, 48 h, human colon cancer cell line, 48 h of incubation, mean ± SEM (n = 30). On the procedure:
as §1, §2, §3

On the set-up of data set [4]: method as in PMID 23879262. Conditions: 20 mM of PBS (pH = 7.4) containing 150 mM of KCl; cited from earlier work.
Data set [5] has as its system human epithelial melanoma A375 cells. Kind of data set: Cell survival index (MTT + cell count) bioscreen, A375. Type of data set: cell-based. Conditions: for IC50: A-375, human melanoma cell line, 48 h of incubation, cell survival index, mean ± SEM (n = 30); for SI (selectivity index): SI = IC50 L6/IC50 A375. As to the method:
as §1, §2, §3

Data set [6] has as its system human A375 melanoma cells. Kind of data set: Apoptosis/Necrosis detection by fluorescence microscopy. The settings on record: A375 cells incubated with IC50 concentrations. Type of data set: cell-based. The source says: In order to confirm the possible activation of apoptosis, we performed fluorescence experiments to simultaneously monitor apoptotic and/or necrotic cells as well as deepen the biological effects on A375 triggered by exposure to the most bioactive derivatives under investigation (Figure 5).
Indeed, in apoptosis, PS is transferred to the outer leaflet of the plasma membrane. As a general indicator of the initial/intermediate stages of programmed cell death, the PS appearance on the cell surface can be detected as an apoptotic hallmark. Even in this circumstance, the results are very similar to those obtained with nutlin-3a.
The evaluation of apoptosis and/or necrosis induction after treatments in vitro was investigated by using the Apoptosis/Necrosis Detection kit (ab176749, Abcam, Discovery Drive, Cambridge Biomedical Campus, Cambridge, UK), which is optimized to simultaneously detect cell apoptosis (green), necrosis (red), and healthy cells (blue) by fluorescence microscopy analysis. […] As a universal indicator of the initial/intermediates stages of cell apoptosis, the appearance of PS on the cell surface can be detected before cytomorphological changes are observed. Thus, the phosphatidylserine (PS) early apoptotic sensor has green fluorescence (Ex/Em = 490/525 nm) upon binding to membrane PS. […]

For the compound `Cc1ccc(Cn2c(C(=O)NCc3cccc(Cl)c3)cc(C(=O)c3ccccc3)c2C)cc1` [compound 1, 4-benzoyl-N-[(3-chlorophenyl)methyl]-5-methyl-1-[(4-methylphenyl)methyl]-1H-pyrrole-2-carboxamide], in data set [1], the CC50 stood at 42 ± 3 µM. In addition, the solubility (commonly how much of the substance goes into solution per volume) at 1 min in data set [2] is 3.5 ± 0.1 µM (≈ 1.6 µg/mL). Moreover, in data set [3], the 50% inhibitory concentration (IC50) – broadly, the concentration that inhibits the measured activity by half – stood at 41.4 ± 6 µM. Further, in data set [4], the Solubility (usually the dissolved amount per volume that the medium holds) is at most 6.8 µM. Also, in data set [5], the half-maximal inhibitory concentration (IC50) came to 20 ± 4 µM and the “SI (selectivity index)” value was determined as 2.1.

Regarding `Cc1c(C(=O)c2ccccc2)cc(C(=O)NCc2cccc(Cl)c2)n1Cc1ccc(F)cc1` [compound 9c, 4-Benzoyl-N-(3-chlorobenzyl)-1-(4-fluorobenzyl)-5-methyl-1H-pyrrole-2-carboxamide], the CC50 in data set [1] is 35 ± 4 µM. The “Activation of apoptosis (phosphatidylserine sensor, green fluorescence)” value in data set [6] is listed as “consistent activation of apoptosis”. For the same compound, in data set [2] (DMSO solution 2.6 mM added to 1400 µL PBS), the “Volume of DMSO solution added to PBS at the precipitation point” value was 2,1 µL. Also, the solubility at 1 min in data set [2] is 3.9 ± 0.2 µM (≈ 1.8 µg/mL). Further, in data set [3], the IC50 amounted to 55.9 ± 7 µM. Also, in data set [5], the IC50 turned out to be 13 ± 4 µM and the “SI (selectivity index)” value is given as 2.7.

As to `Cc1c(C(=O)c2ccccc2)cc(C(=O)NCc2cccc(Cl)c2)n1Cc1ccc(N)cc1` [compound 10a, 1-(4-aminobenzyl)-4-benzoyl-N-(3-chlorobenzyl)-5-methyl-1H-pyrrole-2-carboxamide], the CC50 in data set [1] worked out at 55 ± 7 µM. Besides, the “Activation of apoptosis (phosphatidylserine sensor, green fluorescence)” value in data set [6] is given as “consistent activation of apoptosis”. This compound also returned a solubility at 1 min in data set [2] of 10.5 ± 0.1 µM (≈ 4.81 µg/mL). Also, the “Solubility fold higher than that of 1” value in data set [2] (PBS pH 7.4, ratio of DMSO solution volumes at the precipitation points) was 2.8 fold. The IC50 in data set [3] came to 41.3 ± 6 µM; in data set [5] it was 10 ± 4 µM. For the same compound, the “SI (selectivity index)” value in data set [5] turned out to be 5.6.
